The values that follow come from patent publication US5952376A, “Trienyl compounds” (The Trustees of the University of Pennsylvania, priority 1997, dated 1999).

For one test, the system named is BXPC-3. Description: Antitumor Activity (in vitro), Pancreas-a BXPC-3. Type of test: cell-based. The conditions noted are these: Homo sapiens. The protocol: (§1) Trienes (+)-3a and (+)-3b were tested for antitumor activity generally in accordance with the procedure described by Bai, et al., Biochemistry 1995, 34, 9714.
The test system of another test is SK-N-SH. Description: Antitumor Activity (in vitro), Neuroblast SK-N-SH. Format: cell-based. As to conditions: Homo sapiens. As for the experimental part:
as §1

Another test has as its system SW 1736. Description: Antitumor Activity (in vitro), Thyroid ca SW 1736. The conditions noted are these: Homo sapiens. Format: cell-based. As for the experimental part:
as §1

For a further test, the system named is NCI-H460. Description: Antitumor Activity (in vitro), Lung-NSC NCI-H460. Type of test: cell-based. The conditions noted are these: Homo sapiens. The protocol:
as §1

A further test concerns FADU. Description: Antitumor Activity (in vitro), Pharynx-sq FADU. Format: cell-based. As to conditions: Homo sapiens. As for the experimental part: as §1
In a further test the test system is DU-145. Description: Antitumor Activity (in vitro), Prostate DU-145. Type of test: cell-based. The conditions noted are these: Homo sapiens. As for the experimental part: as §1
The next test has as its system human cancer cell lines. Description: antitumor activity against a series of human cancer cell lines. Format: cell-based. As for the experimental part:
as §1

Test [1] has as its system chemoresistant tumor types, including human melanoma and lung, colon, and brain cancers. As to conditions: cited from earlier work.
A further test relates to tubulin. As to conditions: cited from earlier work.
Another test relates to microtubule assembly. As to conditions: cited from earlier work.
The next test concerns mitosis. The conditions noted are these: cited from earlier work.

As to `C=C/C=C/C(O)CC(=C)C[C@H]1OC(OC)[C@H](OCc2ccccc2)[C@@H](OCc2ccccc2)[C@@H]1OCc1ccccc1` (single isomer, unassigned) [Triene 3a], the GI50 (as a rule, the concentration giving 50% growth inhibition) came out at 0.44 µM in the test on BXPC-3; 0.54 µM in the test on SK-N-SH; 1.2 µM with SW 1736; 0.46 µM in the test on NCI-H460; 0.47 µM in the test on FADU; 0.56 µM with DU-145. Further, the antitumor activity result in the test with human cancer cell lines is “active”.

As to `C=C(Cl)/C=C/C(O)CC(=C)C[C@H]1OC(OC)[C@H](OCc2ccccc2)[C@@H](OCc2ccccc2)[C@@H]1OCc1ccccc1` (single isomer, unassigned) [Triene 3b], the GI50 in the test on BXPC-3 was 5.3 µM; with SK-N-SH it was 3.6 µM; with SW 1736, 9.6 µM; with NCI-H460 it was 11 µM; in the test on FADU, 8.3 µM; in the test on DU-145, above 16 µM. Besides, the antitumor activity result in the test with human cancer cell lines was “active”.

For the compound Spongistatin 1, the “activity against chemoresistant tumor types” value in test [1] is “active”. The binding to tubulin result in the test with tubulin was “binding to tubulin”. The blocking microtubule assembly result with microtubule assembly is recorded as “blocking microtubule assembly”. Moreover, in the test on mitosis, the inhibition of mitosis entry is listed as “inhibits mitosis”.
